Measurements published in PubChem BioAssay AID1399 (The Scripps Research Institute Molecular Screening Center, 2008).

Target: Signal transducer and activator of transcription 3 (Homo sapiens) (UniProt P40763)
Experiment: blockers of STAT3 signaling, concentration series – cell-based, dose response (AID 1399)
Settings: human cell STAT3 reporter inhibition

IC50 [µM]	Compound
5.35	COC(=O)c1cccc(NC(=O)CSc2nc3cccnc3n2C)c1
4.48	Cc1cccc(C)c1NC(=O)N1CCN(c2nc3ccccc3s2)CC1
2.42	O=C(Nc1ccncc1)c1ccc2c(c1)C(=O)N(C1CCCCC1)C2=O
4.55	Cc1cccc(N2CCN(C(=O)CSCc3c(C)noc3C)CC2)c1C
7.66	O=C(CSc1ccc2ccccc2c1)Nc1ccncc1
5.13	O=C(Nc1cccc(S(=O)(=O)Nc2ccccc2Cl)c1)c1ccc(Cl)nc1
